From a melting point compilation (Tetko et al.; mined from patent text by program, amines drawn as free bases though some values may be those of a salt)

Row | SMILES | melting point [°C]
1 | O=S(CCCCCl)Cc1ccc(-c2ccccc2)cc1 (stereo unspecified) | 116 to 117
2 | CCn1cnc2c(Nc3cccc(C(F)(F)F)c3)nc(NCCCO)nc21 | 136 to 137
3 | NS(=O)(=O)c1ccc(-c2noc(-c3cnn4c(C(F)F)cc(-c5ccc(C(F)(F)F)cc5)nc34)n2)s1 | 278
4 | CCOC(=O)c1cn(C(c2ccccc2)(c2ccccc2)c2ccccc2)cn1 | 163 to 164
5 | CC1=C(C(=O)N(C)C)C(c2ccccc2Cl)c2c[nH]nc2N1 (stereo unspecified) | 229
6 | Cc1cc(-c2ccc(C(F)(F)F)cc2)nc(Oc2cccc(C(F)(F)F)c2)n1 | 124 to 127
7 | NC(=O)NN=Cc1ccc(OC2CCCCC2)cc1 | 215 to 217
8 | O=C1C(=CNCCO)Cc2c(Cl)cccc21 | 164 to 166
9 | O=C(Nc1ccc(Cl)cc1C(=NO)c1ccccc1)C(F)Cl (stereo unspecified) | 110 to 129
10 | COc1ccc(C)cc1NC(=O)Nc1ccc2c(c1)CCN(C(=O)Nc1ccc(OCCO)cc1Cl)C2 | 110 to 113
11 | CCCc1c(OCCCCCC(=O)c2ccc(O)c(O)c2)ccc(C(=O)O)c1O | 188 to 191
12 | Cn1ncnc1COc1nc2c(cc1C(C)(C)C)nnn2-c1ccccc1 | 165 to 167
13 | Nc1sc2c(c1C(=O)c1ccccn1)CCN(Cc1ccccc1)C2 | 67 to 71
14 | O=Cc1ccccc1-c1nc2ccccc2o1 | 117 to 120
15 | COc1cc(C)ccc1Oc1ccc([N+](=O)[O-])cc1 | 78 to 80
16 | O=C(NCCO)c1cccc(-c2ccc3ccn(-c4ccc(Cl)cc4Cl)c3c2)c1 | 163 to 164
17 | CCCCOCCOc1ccc(-c2ccc3c(c2)C=C(C(=O)Nc2ccc(CCCn4cnnc4)cc2)CCN3CCC)cc1 | 191 to 194
18 | CCCOc1ccc2nc(NC(=O)OCC)sc2c1 | 175 to 177
19 | CC/C=C(\C)CNc1cccc(-c2ccnc3c(C(=O)c4cccs4)cnn23)c1 | 132 to 133
20 | COC(=O)C(C)Oc1cc(C)ccc1C=O (stereo unspecified) | 65 to 68
21 | CC(C)(C)c1ccc(-c2c(Cl)c(CN3C(=O)CCC3=O)nc3sc4c(c23)CCN(Cc2ccccc2)C4)cc1 | 198 to 199
22 | CCOC(=O)C1COc2cc(C)c(C)cc2O1 (stereo unspecified) | 70 to 71
23 | O=S(=O)(c1cnn(-c2c(Cl)cc(C(F)(F)F)cc2Cl)c1Br)C(F)(F)F | 90 to 91
24 | c1ccc(COc2cc(OCc3ccccc3)cc(OCc3ccccc3)c2)cc1 | 91.5 to 91.9
25 | O=P(c1ccccc1)(c1ccccc1)c1ccc(F)cc1F | 111 to 112
26 | Cc1cccc2c1-n1cnnc1SC2 | 234

Row | SMILES | melting point [°C]
27 | CC(C)c1ccc(OCC(=O)Cl)cc1 | 104 to 105
28 | CC(C)CNc1c2c(nc3cn[nH]c13)CCCC2 | 124 to 127
29 | CC1=C(C(=O)N(c2ccccc2)C2CCCCCC(F)C2)CCO1 (stereo unspecified) | 91
30 | COc1cc(OC)nc(Oc2cccc(Cl)c2NS(C)(=O)=O)n1 | 147 to 148
31 | COC1CCN2C(=O)c3cccc(NC(=O)Nc4cnc(C)cn4)c3C2C1 (stereo unspecified) | 140 to 142
32 | COC(=O)CN(CCN(CCN(CC(=O)OC)S(=O)(=O)c1ccc(C)cc1)S(=O)(=O)c1ccc(C)cc1)S(=O)(=O)c1ccc(C)cc1 | 141 to 142
33 | N#CCOc1cc2c(cc1C#Cc1ccccc1)NC(=O)CC(c1cccc(-n3ccnc3)c1)=N2 | 214
34 | CN1c2ccc(Cl)cc2C(c2ccccc2F)=Nc2cccnc21 | 136 to 138
35 | O=C(O)/C=C\C(=O)NCC(=O)N1c2ccccc2N(Cc2ccccc2)C(=O)[C@H]2CCC[C@H]21 (relative stereo) | 207 to 209
36 | O=C1c2c(ccc3c2OCCO3)S(=O)(=O)N1CCCCBr | 135 to 136
37 | COC(=O)C1=C(C)N(Cc2ccccc2[N+](=O)[O-])C(C)=C(C(=O)OC)C1c1cccc2nonc12 | 192
38 | O=Cc1ccc(OCCCC(=O)O)c([N+](=O)[O-])c1 | 136 to 139
39 | CN(CCN1CCCCC1)S(=O)(=O)c1cc([N+](=O)[O-])ccc1Sc1cc(Cl)cc(Cl)c1 | 113 to 114
40 | O=C(Nc1ccc2ccc(-c3cccc(F)c3)nc2n1)c1cccc(Br)c1 | 208
41 | OCc1cccc(Nc2ncc3c(n2)-c2ccccc2[C@H](c2ccccc2F)C3)c1 | 158 to 159
42 | CN1Cc2c(C#CC(C)(C)OC(=O)C(C)(C)C)ncn2-c2cccc(Cl)c2C1=O | 132 to 133
43 | CS(=O)c1ccc(C(=O)c2cnoc2C2CC2)c(Cl)c1 (stereo unspecified) | 117
44 | COC(=O)c1ccc(CC(C#N)(c2ccccc2Cl)N2CCOCC2)cc1 (stereo unspecified) | 116 to 118
45 | O=C1OC(=O)c2nc3ccccc3cc21 | 225 to 228
46 | Cc1nc(-n2ccc(-c3ccc(Cl)cc3)cc2=O)sc1C(=O)NCc1ccccc1 | 265 to 267
47 | CN1CCC(OC(c2cccc(-c3ccn[nH]3)c2)c2nc3ccccc3s2)CC1 (stereo unspecified) | 90
48 | COc1cc(Nc2nccc(Nc3cccc(CCO)c3)n2)cc(OC)c1OC | 72
49 | Clc1ccc2nc(Cl)nnc2c1 | 113 to 115
50 | CCCOC(=O)N(C)SN(C(=O)NC(=O)c1c(F)cccc1F)c1ccc(Oc2ccc(C(F)(F)F)cc2Cl)cc1F | 98 to 99
51 | CCOc1ccc(C(=O)CCC(=O)Nc2cc(OCCC(C)C)cc(-c3ccccc3)n2)cc1OCC | 122 to 123
52 | COC(=O)NCCc1ccc(C(=O)OC)c(S(=O)(=O)NC(=O)Nc2nc(OC)cc(OC)n2)c1 | 165 to 169

Row | SMILES | melting point [°C]
53 | Cc1cc(C)c2c(c1)C=C(/C=C/C=C/C=C/C(=O)O)CO2 | 208 to 210
54 | Cc1nc(C)c(C(=O)Nc2ccc(-n3nc(C(F)(F)F)cc3C(F)(F)F)cc2)s1 | 158 to 159
55 | COC(=O)c1cnc2c3cc(NS(C)(=O)=O)ccc3ncn2c1=O | 293 to 296
56 | O=C1Nc2ccc(I)cc2C1=NNC(=O)c1ccc(OC(F)(F)F)cc1 | 306
57 | CC1CCCC(=Cc2ccc(Cl)cc2)C1=O (stereo unspecified) | 59
58 | CC(=O)OC1C=C(C)C(=O)CC(C)(C)C1OC(C)=O (stereo unspecified) | 68 to 69
59 | Clc1cc(Cl)cc(N=Cc2ccccc2)c1 | 52 to 53
60 | CC(C)(C)C1OCC(S)(CCO)CO1 (stereo unspecified) | 68
61 | Nc1cccc(C(O)c2cc3c(Oc4ccc(Cl)cc4)cncc3s2)c1 (stereo unspecified) | 73 to 78
62 | O=C(Nc1nc(C(Cl)(Cl)Cl)ns1)c1cccc([N+](=O)[O-])c1 | 198
63 | Cc1c(N)cc([N+](=O)[O-])c(N)c1C | 159
64 | ON=C1CCN(C2c3ccccc3COc3ccc(Br)cc32)CC1 (stereo unspecified) | 223 to 225
65 | O=C(O)c1cc(Cl)c(F)c(Cl)c1F | 179
66 | Cc1cc2c(Cl)c3ccccc3c(C=O)c2cc1C | 150 to 153
67 | CCCC12CCC3c4ccc(OC)cc4CCC3C1CCC2O (stereo unspecified) | 141 to 143
68 | COc1cc2c(Nc3cccc(Cl)c3F)ncnc2cc1OC1CCN(C(=O)C2(O)CC2)CC1 | 177 to 178
69 | O=C(CCCCCCC(=O)N1CCN(CC(=O)Nc2nc3ccccc3s2)CC1)NO | 166 to 170
70 | COc1ccc(Cc2cc(CCNS(=O)(=O)c3ccc(Cl)cc3)cc(CCC(=O)O)c2)cc1 | 106 to 108
71 | CCn1c([N+](=O)[O-])cnc1C=Cc1ccccc1 | 231 to 233
72 | CC(=O)Nc1cc(F)c([N+](=O)[O-])cc1F | 188 to 189
73 | O=C(O)CC(C(=O)O)C(CSc1nc2ccccc2s1)C(=O)O (stereo unspecified) | 188 to 190
74 | CC(C)(C)C(=O)COc1ccc(-c2ccc(Cl)cc2)cc1 | 90
75 | CCOC(=O)Cc1c(C(=O)OCC)c(C)cn1CCO | 133 to 135
76 | CN1CC2CC2(C(=O)O)C1 (stereo unspecified) | 193 to 195
77 | OCc1cccc(/C=C/c2ccc3ccc(Cl)cc3n2)c1 | 141
78 | CCCCCCN(C)c1ccc(C=C2SC(=S)N(CC(=O)NC)C2=O)cc1 | 228 to 230

Row | SMILES | melting point [°C]
79 | Cc1cc(C2=CC(=O)c3cccc(O)c3C2=O)c(C)[nH]1 | 195 to 196
80 | CCc1csc(-c2ccc(OCCC3CCN(c4ccc(C)nn4)CC3)cc2)n1 | 113
81 | Cc1nn(C)c2c(-c3ccc(OC(F)(F)F)cc3)nc(-c3ccc(F)cc3)nc12 | 170 to 172
82 | COc1ccc(C2=CC(N3CCN(Cc4ccccc4)CC3)=NC23C=CC(=O)C=C3)cc1 | 190
83 | COc1ccc(N2CCOCC2)c2sc(C(=O)NC3CCCCC3=O)nc12 (stereo unspecified) | 165
84 | CCOC(=O)C(C)(NC(C)=O)C(=O)OCC | 89 to 90
85 | CC(=O)c1cn(-c2c(Cl)cc(C(F)(F)F)cc2Cl)nc1C#N | 166 to 168
86 | CN1CCC2=C(C=CCC2)C(N)C1=O (stereo unspecified) | 69 to 81
87 | COC(=O)C=Cc1cc2ccccc2o1 | 84 to 86
88 | COc1ccc2cc([C@H](C)C(=O)OCCSCCO)ccc2c1 | 58 to 61
89 | COc1ccc(CC(=O)NC(NC(=NC#N)Nc2c(F)cc(F)cc2F)C(C)(C)C)cc1OC (stereo unspecified) | 170 to 171
90 | COc1cc2nc(N3CCN(C(=O)C4CCCCC4)CC3)nc(N)c2cc1OC | 223 to 225
91 | CCCCNc1nc(N)nc(N)n1 | 167
92 | O=c1cc(-c2nnn[nH]2)oc2c(/C=C/c3ccc(OCCCCc4ccc(F)cc4)cc3)cccc12 | 174 to 175
93 | N#Cc1cc(-c2nc3cncnc3s2)ccc1Sc1cccc(F)c1 | 189 to 190
94 | O=C1CCC2CC(O)C(=O)N12 (stereo unspecified) | 135 to 140
95 | COc1ccc(-c2c(Cl)ncn2-c2ccc(S(C)(=O)=O)cc2)c(F)c1 | 176 to 198
96 | Oc1ccc2c(c1)OCC(c1cccc(C(F)(F)F)c1)C2c1ccc(OCCN2CCCC2)cc1 (stereo unspecified) | 87 to 89
97 | CCn1cc(C(=O)O)c(=O)cc1-c1ccc(OC)cc1 | 215 to 217
98 | O=C(N[C@H](Cc1cccc(OC(F)(F)C(F)F)c1)[C@@H](O)c1cccc(F)n1)c1cccc2c1C=CCCC2 (racemic) | 151 to 152
99 | O=Cc1ccc(OCc2csc(-c3ccccc3)n2)cc1 | 86 to 90
100 | Cc1ccc(CNc2nc(Nc3cccc(N4CCOCC4)c3)nc(OCC(F)(F)F)n2)o1 | 130 to 134
101 | Cc1cc(C)nc(Sc2ccnc3cc(Cl)ccc23)n1 | 127 to 130
